We go through 1 molecule from EPA's ToxValDB 9.5 (doi:10.2903/j.efsa.2007.111r).

Molecules are shown by their SMILES. In brackets after ≈: the same amount, converted by molar mass. Some results are limits rather than exact numbers.

One data set has as its system Tagia sp. The settings on record: acute; duration: 14 days; mortality.
In the next data set the test system is Colinus virginianus. The following applies: acute; oral; mortality.
The subject of another data set is Apis mellifera. The settings on record: acute; duration: 48 hours; dermal; mortality.
The subject of another data set is Bibionidae. The settings on record: chronic/long-term; duration: 25 days; development.
The subject of the next data set is Daphnia magna. The following applies: chronic/long-term; duration: 21 days; reproduction.

The NOAEL is the highest tested level that showed no adverse finding. Consider `CCCN(CCC)C(=O)SCc1ccccc1` [Prosulfocarb], for which the LC50 in the data set with Tagia sp. worked out at 144 mg/kg; in the data set with Oncorhynchus mykiss (acute, duration: 96 hours, mortality) it was 0.84 mg/L (≈ 3.34 µM). Further, the LD50 is above 2250 mg/kg-day with Colinus virginianus; above 80 µg/piece with Apis mellifera; 1820 mg/kg-day in the data set on Rattus norvegicus (acute, oral, mortality); above 1510 mg/kg-day in the data set on Anas platyrhynchos (short-term, oral, feed, mortality). In addition, the NOEC in the data set with Oncorhynchus mykiss (chronic/long-term, duration: 21 days, other) is 0.31 mg/L; with Bibionidae it was 1.25 mg/L; in the data set with Daphnia magna, 0.045 mg/L. For the same molecule, the NOAEL in the data set on Rattus norvegicus (chronic, duration: 2 years, oral, body weight) was 0.5 mg/kg-day; with Rattus norvegicus (reproduction developmental, body weight), 0.5 mg/kg-day; in the data set on Rattus norvegicus (reproduction developmental, clinical signs), 10 mg/kg-day; with Rattus norvegicus (reproduction developmental, reproduction) it was above 50 mg/kg-day; with Rattus norvegicus (subchronic, duration: 90 days, oral, body weight) it was 1 mg/kg-day. Further, the NOEL in the data set with Anas platyrhynchos (reproductive) came out at 131 mg/kg-day.
